PMC12827886 (Acta Pharmaceutica Sinica. B, 2025)

Molecular target: Cereblon (CRBN) (Homo sapiens, UniProt Q96SW2)
Experiment: biochemical
Assay type: binding

Sequence of Cereblon (CRBN) (Q16531 2-1140): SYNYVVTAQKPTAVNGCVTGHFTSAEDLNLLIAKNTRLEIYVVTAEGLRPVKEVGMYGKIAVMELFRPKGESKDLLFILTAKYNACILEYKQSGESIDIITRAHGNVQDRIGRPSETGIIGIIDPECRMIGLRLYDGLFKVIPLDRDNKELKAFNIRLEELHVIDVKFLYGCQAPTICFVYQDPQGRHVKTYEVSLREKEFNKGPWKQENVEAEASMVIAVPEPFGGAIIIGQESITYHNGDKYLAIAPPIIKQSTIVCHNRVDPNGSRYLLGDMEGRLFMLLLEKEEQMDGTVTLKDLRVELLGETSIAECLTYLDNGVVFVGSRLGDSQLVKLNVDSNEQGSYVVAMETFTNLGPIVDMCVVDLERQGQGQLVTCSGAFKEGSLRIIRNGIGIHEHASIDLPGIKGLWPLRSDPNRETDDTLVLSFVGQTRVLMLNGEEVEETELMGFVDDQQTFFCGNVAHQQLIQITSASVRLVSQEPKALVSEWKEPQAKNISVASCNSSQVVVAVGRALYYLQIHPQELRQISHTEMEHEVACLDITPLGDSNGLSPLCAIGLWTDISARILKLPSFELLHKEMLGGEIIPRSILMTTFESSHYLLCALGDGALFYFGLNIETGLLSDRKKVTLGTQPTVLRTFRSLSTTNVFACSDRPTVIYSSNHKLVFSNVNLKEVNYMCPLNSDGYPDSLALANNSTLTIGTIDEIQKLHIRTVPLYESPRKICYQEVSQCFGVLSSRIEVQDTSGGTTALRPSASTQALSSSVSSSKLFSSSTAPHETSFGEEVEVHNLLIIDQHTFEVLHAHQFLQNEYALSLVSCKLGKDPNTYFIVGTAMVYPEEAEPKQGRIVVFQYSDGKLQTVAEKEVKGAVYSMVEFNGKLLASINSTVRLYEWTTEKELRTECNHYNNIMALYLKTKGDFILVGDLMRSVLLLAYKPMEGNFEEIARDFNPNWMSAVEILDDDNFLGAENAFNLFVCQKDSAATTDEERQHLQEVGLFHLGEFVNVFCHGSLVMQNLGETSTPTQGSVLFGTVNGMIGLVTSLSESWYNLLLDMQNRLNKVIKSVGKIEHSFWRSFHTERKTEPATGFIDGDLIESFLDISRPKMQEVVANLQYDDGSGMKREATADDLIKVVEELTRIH
Sequence of Cereblon (CRBN) (Q96SW2 whole entry): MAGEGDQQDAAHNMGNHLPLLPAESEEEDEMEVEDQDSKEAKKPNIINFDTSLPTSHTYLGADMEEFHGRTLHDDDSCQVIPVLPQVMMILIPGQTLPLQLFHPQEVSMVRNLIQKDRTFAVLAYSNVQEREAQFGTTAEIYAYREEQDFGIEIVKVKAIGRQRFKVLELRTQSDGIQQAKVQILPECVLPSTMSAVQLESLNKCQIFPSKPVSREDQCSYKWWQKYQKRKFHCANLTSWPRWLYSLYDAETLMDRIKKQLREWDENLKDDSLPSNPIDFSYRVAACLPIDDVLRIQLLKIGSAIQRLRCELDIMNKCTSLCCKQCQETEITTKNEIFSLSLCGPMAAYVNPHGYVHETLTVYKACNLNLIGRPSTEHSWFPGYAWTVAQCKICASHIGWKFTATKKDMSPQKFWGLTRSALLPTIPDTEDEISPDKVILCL

Row | IC50 | Compound
1 | 15.8 µM | CO[C@H]1/C=C/O[C@@]2(C)Oc3c(C)c(O)c4c(c3C2=O)C2=NC3(CCN(CC(C)C)CC3)NC2=C(NC(=O)/C(C)=C\C=C\[C@H](C)[C@H](O)[C@@H](C)[C@@H](O)[C@@H](C)[C@H](OC(C)=O)[C@@H]1C)C4=O [Rifabutin]
2 | 3.09 µM | CO[C@H]1/C=C/O[C@@]2(C)Oc3c(C)c(O)c4c(c3C2=O)C(=O)C=C(NC(=O)/C(C)=C\C=C\[C@H](C)[C@H](O)[C@@H](C)[C@@H](O)[C@@H](C)[C@H](OC(C)=O)[C@@H]1C)C4=O [Rifamycin S]
